Results: patent US20210380606A1, “5-AZAINDAZOLE DERIVATIVES AS ADENOSINE RECEPTOR ANTAGONISTS” (Merck Patent GmbH, priority 2018, published 2021)
Read-outs that look alike come from different tables or passages of the source.

Key:
human A2A receptors = target: T1, human A2A receptors (Homo sapiens, UniProt P29274); assay: Functional human A2A receptor activity, recombinant HEK293 cells, cAMP (HTRF); type: cell-based; conditions: read-out: A2A (Category)
T1 construct: expressed in transfected cells; host or cells: HEK293
Procedure: (§1) The functional activities of human A2A and A2B receptors were determined by quantification of cAMP, being the second messenger for adenosine receptors.
(§2) After a 15 min incubation, HTRF reagents (cAMP dynamic 2, Cis Bio) were added and the cellular cAMP levels were determined using the ENVISION (Perkin Elmer) plate reader.

human A2B receptors = target: T2, human A2B receptors (Homo sapiens, UniProt P29275); assay: Functional human A2B receptor activity, recombinant HEK293 cells, cAMP (HTRF); type: cell-based; conditions: read-out: A2B (Category)
T2 construct: expressed in transfected cells; host or cells: HEK293
T2 sequence (P29275 1-332): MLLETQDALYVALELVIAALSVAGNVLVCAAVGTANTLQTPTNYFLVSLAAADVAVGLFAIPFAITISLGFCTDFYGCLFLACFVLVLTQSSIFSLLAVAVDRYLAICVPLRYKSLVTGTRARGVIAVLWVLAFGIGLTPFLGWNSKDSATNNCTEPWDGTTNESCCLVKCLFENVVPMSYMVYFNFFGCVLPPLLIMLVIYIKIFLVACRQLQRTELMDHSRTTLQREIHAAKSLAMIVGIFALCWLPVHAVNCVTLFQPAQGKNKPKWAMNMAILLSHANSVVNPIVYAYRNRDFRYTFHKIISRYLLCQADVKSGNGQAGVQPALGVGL
Procedure: as §1, §2

T1 sequence (P29274 whole entry): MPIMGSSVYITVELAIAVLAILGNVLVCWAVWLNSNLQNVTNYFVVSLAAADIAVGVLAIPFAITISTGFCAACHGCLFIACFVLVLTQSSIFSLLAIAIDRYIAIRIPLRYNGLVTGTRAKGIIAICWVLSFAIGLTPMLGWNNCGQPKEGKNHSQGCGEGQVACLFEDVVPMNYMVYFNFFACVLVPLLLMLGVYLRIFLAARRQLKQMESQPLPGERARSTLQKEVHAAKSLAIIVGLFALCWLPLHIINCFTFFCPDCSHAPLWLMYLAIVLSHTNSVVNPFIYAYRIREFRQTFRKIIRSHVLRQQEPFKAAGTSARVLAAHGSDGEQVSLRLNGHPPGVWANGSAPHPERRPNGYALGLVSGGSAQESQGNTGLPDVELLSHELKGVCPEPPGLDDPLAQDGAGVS

| Structure (SMILES) | IC50 (human A2A receptors) [nM] | IC50 (human A2B receptors) [nM] | IC50 (human A2A receptors; recombinant HEK293 cells expressing human A2A receptor, agonist NECA, cAMP HTRF, 15 min incubation) [nM] | IC50 (human A2B receptors; recombinant HEK293 cells expressing human A2B receptor, agonist NECA, cAMP HTRF, 15 min incubation) [nM] |
| --- | --- | --- | --- | --- |
| O=C(c1cc2c(cn1)c(-c1cnc3c(F)cc(F)cn13)nn2CC(F)(F)F)N1CCCCC(O)C1 (racemic) [Compound 134, [3-(6,8-Difluoro-imidazo[1,2-a]pyridin-3-yl)-1-(2,2,2-trifluoro-ethyl)-1H-pyrazolo[4,3-c]pyridin-6-yl]-(3-hydroxy-azepan-1-yl)-methanone] | < 100 | < 1000 | – | – |
| C[C@@]1(O)C[C@H]2C[C@@H]1CN2C(=O)c1cc2c(cn1)c(-c1coc3ccccc13)nn2CS(C)(=O)=O (relative stereo) [Compound 31, (3-Benzofuran-3-yl-1-methanesulfonylmethyl-1H-pyrazolo[4,3-c]pyridin-6-yl)-(5-endo-hydroxy-5-exo-methyl-2-aza-bicyclo[2.2.1]hept-2-yl)-methanone] | < 100 | < 1000 | – | – |
| O=C(c1cc2c(cn1)c(-c1cnc3ccc(F)cn13)nn2CC(F)F)N1CCCCCC1 [Compound 3, Azepan-1-yl-[1-(2,2-difluoro-ethyl)-3-(6-fluoro-imidazo[1,2-a]pyridin-3-yl)-1H-pyrazolo[4,3-c]pyridin-6-yl]-methanone] | < 100 | < 100 | – | – |
| O=C(c1cc2c(cn1)c(-c1cnc3ccc(F)cn13)nn2CCF)N1CCCCCC1 [Compound 4, Azepan-1-yl-[1-(2-fluoro-ethyl)-3-(6-fluoro-imidazo[1,2-a]pyridin-3-yl)-1H-pyrazolo[4,3-c]pyridin-6-yl]-methenone] | < 100 | < 1000 | – | – |
| CCCn1nc(-c2cnc3ccc(F)cn23)c2cnc(C(=O)N3CCCCCC3)cc21 [Compound 5, Azepan-1-yl-[3-(6-fluoro-imidazo[1,2-a]pyridin-3-yl)-1-propyl-1H-pyrazolo[4,3-c]pyridin-6-yl]-methanone] | < 100 | < 1000 | – | – |
| COCn1nc(-c2cnc3ccc(F)cn23)c2cnc(C(=O)N3CCCCCC3)cc21 [Compound 6, Azepan-1-yl-[3-(6-fluoro-imidazo[1,2-a]pyridin-3-yl)-1-methoxymethyl-1H-pyrazolo[4,3-c]pyridin-6-yl]-methanone] | < 100 | < 1000 | – | – |
| N#CCn1nc(-c2cnc3ccc(F)cn23)c2cnc(C(=O)N3CCCCCC3)cc21 [Compound 7, [6-(Azepane-1-carbonyl)-3-(6-fluoro-imidazo[1,2-a]pyridin-3-yl)-pyrazolo[4,3-c]pyridin-1-yl]-acetonitrile] | < 100 | < 1000 | – | – |
| O=C(c1cc2c(cn1)c(-c1cnc3c(F)cc(F)cn13)nn2CC1CC1)N1CCCOCC1 [Compound 9, [1-Cyclopropylmethyl-3-(6,8-difluoro-imidazo[1,2-a]pyridin-3-yl)-1H-pyrazolo[4,3-c]pyridin-6-yl]-1,4-oxazepan-4-yl-methanone] | < 100 | < 1000 | – | – |
| CS(=O)(=O)n1nc(-c2cnc3c(F)cc(F)cn23)c2cnc(C(=O)N3CCCOCC3)cc21 [Compound 10, [3-(6,8-Difluoro-imidazo[1,2-a]pyridin-3-yl)-1-methanesulfonyl-1H-pyrazolo[4,3-c]pyridin-6-yl]-1,4-oxazepan-4-yl-methanone] | < 100 | < 1000 | – | – |
| N#CCn1nc(-c2coc3ccccc23)c2cnc(C(=O)N3CCCOCC3)cc21 [Compound 13, [3-Benzofuran-3-yl-6-(1,4-oxazepane-4-carbonyl)-pyrazolo[4,3-c]pyridin-1-yl]-acetonitrile] | < 100 | < 1000 | – | – |
| CSCn1nc(-c2cnc3c(F)cc(F)cn23)c2cnc(C(=O)N3CC4CCC(C4)C3)cc21 [Compound 14, (3-Aza-bicyclo[3.2.1]oct-3-yl)-[3-(6,8-difluoro-imidazo[1,2-a]pyridin-3-yl)-1-methylsulfanylmethyl-1H-pyrazolo[4,3-c]pyridin-6-yl]-methanone] | < 100 | < 100 | – | – |
| CS(=O)(=O)Cn1nc(-c2cnc3c(F)cc(F)cn23)c2cnc(C(=O)N3CCCOCC3)cc21 [Compound 15, [3-(6,8-Difluoro-imidazo[1,2-a]pyridin-3-yl)-1-methanesulfonylmethyl-1H-pyrazolo[4,3-c]pyridin-6-yl]-1,4-oxazepan-4-yl-methanone] | < 100 | < 100 | – | – |
| CS(=O)(=O)Cn1nc(-c2coc3ccccc23)c2cnc(C(=O)N3CCCOCC3)cc21 [Compound 16, (3-Benzofuran-3-yl-1-methanesulfonylmethyl-1H-pyrazolo[4,3-c]pyridine-6-yl)-1,4-oxazepan-4-yl-methanone] | < 100 | < 100 | – | – |
| CS(=O)(=O)Cn1nc(-c2cnn3ccccc23)c2cnc(C(=O)N3CCCOCC3)cc21 [Compound 17, (1-Methanesulfonylmethyl-3-pyrazolo[1,5-a]pyridin-3-yl-1H-pyrazolo[4,3-c]pyridin-6-yl)-1,4-oxazepan-4-yl-methanone] | < 100 | < 100 | – | – |
| CS(=O)(=O)Cn1nc(-c2cnn3ccccc23)c2cnc(C(=O)N3CC4CCC(C4)C3)cc21 [Compound 18, (3-Aza-bicyclo[3.2.1]oct-3-yl)-(1-methanesulfonylmethyl-3-pyrazolo[1,5-a]pyridin-3-yl-1H-pyrazolo[4,3-c]pyridin-6-yl)-methanone] | < 100 | < 1000 | – | – |
| CS(=O)(=O)Cn1nc(-c2coc3ccccc23)c2cnc(C(=O)N3CC4CCC(C4)C3)cc21 [Compound 19, (3-Aza-bicyclo[3.2.1]oct-3-yl)-(3-benzofuran-3-yl-1-methanesulfonylmethyl-1H-pyrazolo[4,3-c]pyridin-6-yl)-methanone] | < 100 | < 100 | – | – |
| CS(=O)(=O)Cn1nc(-c2cnc3ccc(F)cn23)c2cnc(C(=O)N3CCCCCC3)cc21 [Compound 20, Azepan-1-yl-[3-(6-fluoro-imidazo[1,2-a]pyridin-3-yl)-1-methanesulfonylmethyl-1H-pyrazolo[4,3-c]pyridin-6-yl]-methanone] | < 100 | < 100 | – | – |
| CS(=O)(=O)Cn1nc(-c2cnc3c(F)cc(F)cn23)c2cnc(C(=O)N3CC4CCC(C4)C3)cc21 [Compound 23, (3-Aza-bicyclo[3.2.1]oct-3-yl)-[3-(6,8-difluoro-imidazo[1,2-a]pyridin-3-yl)-1-methanesulfonylmethyl-1H-pyrazolo[4,3-c]pyridin-6-yl]-methanone] | < 100 | < 100 | – | – |
| CC1(O)C2CCC1CN(C(=O)c1cc3c(cn1)c(-c1cnc4c(F)cc(F)cn14)nn3CS(C)(=O)=O)C2 (stereo not drawn) [Compound 24, [3-(6,8-Difluoro-imidazo[1,2-a]pyridin-3-yl)-1-methanesulfonylmethyl-1H-pyrazolo[4,3-c]pyridin-6-yl]-(8-endo-hydroxy-8-exo-methyl-3-aza-bicyclo[3.2.1]oct-3-yl)-methanone] | < 100 | < 100 | – | – |
| CS(=O)(=O)Cn1nc(-c2cnc3c(F)cc(F)cn23)c2cnc(C(=O)N3[C@@H]4CC[C@H]3C[C@@H](O)C4)cc21 [Compound 25, [3-(6,8-Difluoro-imidazo[1,2-a]pyridin-3-yl)-1-methanesulfonylmethyl-1H-pyrazolo[4,3-c]pyridin-6-yl]-(3-endo-hydroxy-8-aza-bicyclo[3.2.1]oct-8-yl)-methanone] | < 100 | < 100 | – | – |
| CS(=O)(=O)Cn1nc(-c2cnc3c(F)cc(F)cn23)c2cnc(C(=O)N3CC4CCC(C3)O4)cc21 [Compound 27, [3-(6,8-Difluoro-imidazo[1,2-a]pyridin-3-yl)-1-methanesulfonylmethyl-1H-pyrazolo[4,3 c]pyridin-6-yl]-(8-oxa-3-aza-bicyclo[3.2.1]oct-3-yl)-methanone] | < 100 | < 1000 | – | – |
| CC1(O)C2CCC1CN(C(=O)c1cc3c(cn1)c(-c1coc4ccccc14)nn3CS(C)(=O)=O)C2 (stereo not drawn) [Compound 28, (3-Benzofuran-3-yl-1-methanesulfonylmethyl-1H-pyrazolo[4,3-c]pyridin-6-yl)-(8-endo-hydroxy-8-exo-methyl-d3-3-aza-bicyclo[3.2.1]oct-3-yl)-methanone] | – | – | < 100 | < 100 |
| CS(=O)(=O)Cn1nc(-c2coc3ccccc23)c2cnc(C(=O)N3CCOCC(F)(F)C3)cc21 [Compound 29, (3-Benzofuran-3-yl-1-methanesulfonylmethyl-1H-pyrazolo[4,3-c]pyridin-6-yl)-(6,6-difluoro-1,4-oxazepan-4-yl)-methanone] | < 100 | < 1000 | – | – |
| CS(=O)(=O)Cn1nc(-c2coc3ccccc23)c2cnc(C(=O)N3CC4CCC(C3)C4O)cc21 (stereo not drawn) [Compound 30, (3-Benzofuran-3-yl-1-methanesulfonylmethyl-1H-pyrazolo[4,3-c]pyridin-6-yl)-(8-endo-hydroxy-3-aza-bicyclo[3.2.1]oct-3-yl)-methanone] | < 100 | < 100 | – | – |
| CC1(O)CCN(C(=O)c2cc3c(cn2)c(-c2coc4ccccc24)nn3CS(C)(=O)=O)CC1 [Compound 32, (3-Benzofuran-3-yl-1-methanesulfonylmethyl-1H-pyrazolo[4,3-c]pyridin-6-yl)-(4-hydroxy-4-methyl-piperidin-1-yl)-methanone] | < 100 | < 1000 | – | – |
| CS(=O)(=O)Cn1nc(-c2coc3ccccc23)c2cnc(C(=O)N3CCC(F)(F)CC3)cc21 [Compound 33, (3-Benzofuran-3-yl-1-methanesulfonylmethyl-1H-pyrazolo[4,3-c]pyridin-6-yl)-(4,4-difluoro-piperidin-1-yl)-methanone] | < 100 | < 1000 | – | – |
